Read-outs that look alike come from different tables or passages of the source.
What was measured:
[1] = test system: phosphorylated 4E-BP1 Thr37/46 (p4E-BP1 Thr37/46), mTORC1 activity, PC3 cells; experiment: mTOR target engagement assay, immunofluorescent cell-based, p4E-BP1 Thr37/46 readout (mTORC1 activity); conditions: Homo sapiens, read-out: p4E-BP1 Thr37/46 IC50
Outline: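 Cell-based immunofluorescence in PC3 cells: serially diluted compounds (0.25% DMSO, 5% FBS) applied for ninety minutes at 37° C before fixation and overnight 4° C staining of p4E-BP1 Thr37/46. Untreated DMSO wells set maximal phosphorylation; IC50 obtained by logistic fitting.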

[2] = test system: phosphorylated AKT Ser473 (pAKT S473), mTORC2 activity, PC3 cells; experiment: mTOR target engagement assay, immunofluorescent cell-based, pAKT S473 readout (mTORC2 activity); conditions: Homo sapiens
Outline: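 After blocking, cells were stained overnight at 4 °C with anti-pAKT S473 antibody, then a fluorescent secondary; inhibition was read as reduced fluorescence intensity.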

[3] = PC-3, PC3 cells, compound treatment ninety minutes at 37° C.

Row | Compound | IC50 [1, 3] [nM] | IC50 [2, 3] [nM] | IC50 ([1]; PC-3, Table 3-1, PC3 cells) [nM] | IC50 ([2]; PC-3, Table 3-1, PC3 cells) [nM] | other results
1 | CC(=O)c1c([C@@H]2C[C@H]3CC[C@@H](C2)N3C(=O)c2nnc[nH]2)nc2c(-c3ccc(-c4nccs4)nc3)cnn2c1N [Compound 1.1.37, 1-(5-((1R,3s,5S)-8-(4H-1,2,4-triazole-3-carbonyl)-8-azabicyclo[3.2.1]octan-3-yl)-7-amino-3-(6-(thiazol-2-yl)pyridin-3-yl)pyrazolo[1,5-a]pyrimidin-6-yl)ethanone] | 1 to 100 | 1 to 100 | – | – | –
2 | COc1ccc(-c2ccc(-c3cnn4c(N)c(S(C)(=O)=O)c([C@@H]5C[C@H]6CC[C@@H](C5)N6C(=O)c5nnc[nH]5)nc34)cn2)cc1OC [Compound 3.39, ((1R,3s,5S)-3-(7-amino-3-(6-(3,4-dimethoxyphenyl)pyridin-3-yl)-6-(methylsulfonyl)pyrazolo[1,5-a]pyrimidin-5-yl)-8-azabicyclo[3.2.1]octan-8-yl)(4H-1,2,4-triazol-3-yl)methanone] | – | – | 100 to 1000 | 100 to 1000 | –
3 | COCc1cnc(-c2ccc(-c3cnn4c(N)c(C(C)=O)c([C@@H]5C[C@H]6CC[C@@H](C5)N6C(=O)c5nnc[nH]5)nc34)cn2)s1 [Compound 1.1.52, 1-(5-((1R,3s,5S)-8-(4H-1,2,4-triazole-3-carbonyl)-8-azabicyclo[3.2.1]octan-3-yl)-7-amino-3-(6-(5-(methoxymethyl)thiazol-2-yl)pyridin-3-yl)pyrazolo[1,5-a]pyrimidin-6-yl)ethanone] | 100 to 1000 | 100 to 1000 | – | – | –
4 | COc1ccc(-c2ccc(-c3cnn4c(N)c(C(C)=O)c([C@@H]5C[C@H]6CC[C@@H](C5)N6C(=O)c5nnc(N)[nH]5)nc34)cn2)cc1F [Compound 1.1.144, 1-(7-amino-5-((1R,3s,5S)-8-(5-amino-4H-1,2,4-triazole-3-carbonyl)-8-azabicyclo[3.2.1]octan-3-yl)-3-(6-(3-fluoro-4-methoxyphenyl)pyridin-3-yl)pyrazolo[1,5-a]pyrimidin-6-yl)ethanone] | 1 to 100 | 1 to 100 | – | – | –
5 | COc1c(F)cc(-c2ccc(-c3cnn4c(N)c(C(C)=O)c([C@@H]5C[C@H]6CC[C@@H](C5)N6C(=O)c5nnc[nH]5)nc34)cn2)cc1F [Compound 1.1.64, 1-(5-((1R,3s,5S)-8-(4H-1,2,4-triazole-3-carbonyl)-8-azabicyclo[3.2.1]octan-3-yl)-7-amino-3-(6-(3,5-difluoro-4-methoxyphenyl)pyridin-3-yl)pyrazolo[1,5-a]pyrimidin-6-yl)ethanone] | 100 to 1000 | 100 to 1000 | – | – | –
6 | CC(=O)c1c([C@@H]2C[C@H]3CC[C@@H](C2)N3C(=O)c2ncn[nH]2)nc2c(-c3ccc(C(C)(C)O)nc3)cnn2c1N [Compound 7.5, 1-(5-((1R,3s,5S)-8-(1H-1,2,4-triazole-5-carbonyl)-8-azabicyclo[3.2.1]octan-3-yl)-7-amino-3-(6-(2-hydroxypropan-2-yl)pyridin-3-yl)pyrazolo[1,5-a]pyrimidin-6-yl)ethanone] | 1 to 100 | 1 to 100 | – | – | –
7 | Nc1c(C2CC2)c([C@@H]2C[C@H]3CC[C@@H](C2)N3C(=O)c2nnc[nH]2)nc2c(-c3ccc(-c4cccc(F)c4)nc3)cnn12 [Compound 4.21, ((1R,3s,5S)-3-(7-amino-6-cyclopropyl-3-(6-(3-fluorophenyl)pyridin-3-yl)pyrazolo[1,5-a]pyrimidin-5-yl)-8-azabicyclo[3.2.1]octan-8-yl)(4H-1,2,4-triazol-3-yl)methanone] | 1 to 100 | 1 to 100 | – | – | –
8 | CS(=O)(=O)c1c([C@@H]2C[C@H]3CC[C@@H](C2)N3C(=O)c2nnc[nH]2)nc2c(-c3ccc(C(N)=O)c(F)c3)cnn2c1N [Compound 3.155, 4-(5-((1R,3s,5S)-8-(4H-1,2,4-triazole-3-carbonyl)-8-azabicyclo[3.2.1]octan-3-yl)-7-amino-6-(methylsulfonyl)pyrazolo[1,5-a]pyrimidin-3-yl)-2-fluorobenzamide] | – | – | 1000 to 10000 | > 10000 | –
9 | CC(=O)c1c([C@@H]2C[C@H]3CC[C@@H](C2)N3C(N)=O)nc2c(-c3ccc(-c4ccc(F)cc4F)nc3)cnn2c1N [Compound 1.1.169, (1R,3s,5S)-3-(6-acetyl-7-amino-3-(6-(2,4-difluorophenyl)pyridin-3-yl)pyrazolo[1,5-a]pyrimidin-5-yl)-8-azabicyclo[3.2.1]octane-8-carboxamide] | 1 to 100 | 1 to 100 | – | – | –
10 | CS(=O)(=O)c1c([C@@H]2C[C@H]3CC[C@@H](C2)N3C(=O)[C@H]2COC(=O)N2)nc2c(-c3ccc(-c4ccccc4)nc3)cnn2c1N [Compound 3.142, (R)-4-((1R,3S,5S)-3-(7-amino-6-(methylsulfonyl)-3-(6-phenylpyridin-3-yl)pyrazolo[1,5-a]pyrimidin-5-yl)-8-azabicyclo[3.2.1]octane-8-carbonyl)oxazolidin-2-one] | – | – | 100 to 1000 | 100 to 1000 | –
11 | CC(=O)c1c([C@@H]2C[C@H]3CC[C@@H](C2)N3C(=O)c2nnc[nH]2)nc2c(-c3ccc(C(C)O)nc3)cnn2c1N (stereo partly drawn) [Compound 7.4, 1-(5-((1R,3s,5S)-8-(4H-1,2,4-triazole-3-carbonyl)-8-azabicyclo[3.2.1]octan-3-yl)-7-amino-3-(6-(1-hydroxyethyl)pyridin-3-yl)pyrazolo[1,5-a]pyrimidin-6-yl)ethanone] | 1 to 100 | 1 to 100 | – | – | –
12 | CC(=O)c1c([C@@H]2C[C@H]3CC[C@@H](C2)N3C(=O)C2CCCO2)nc2c(-c3ccc(-c4ncc[nH]4)nc3)cnn2c1N (stereo partly drawn) [Compound 6.19, 1-(3-(6-(1H-imidazol-2-yl)pyridin-3-yl)-7-amino-5-((1R,3s,5S)-8-(tetrahydrofuran-2-carbonyl)-8-azabicyclo[3.2.1]octan-3-yl)pyrazolo[1,5-a]pyrimidin-6-yl)ethanone] | – | – | – | – | IC50 ([1]; PC-3, Table 6-1, PC3 cells): 100 to 1000 nM; IC50 ([2]; PC-3, Table 6-1, PC3 cells): 1 to 100 nM
13 | Cc1nc(-c2ccc(-c3cnn4c(N)c(S(C)(=O)=O)c([C@@H]5C[C@H]6CC[C@@H](C5)N6C(=O)c5nnc[nH]5)nc34)cn2)sc1C [Compound 3.196, ((1R,3s,5S)-3-(7-amino-3-(6-(4,5-dimethylthiazol-2-yl)pyridin-3-yl)-6-(methylsulfonyl)pyrazolo[1,5-a]pyrimidin-5-yl)-8-azabicyclo[3.2.1]octan-8-yl)(4H-1,2,4-triazol-3-yl)methanone] | – | – | 100 to 1000 | 100 to 1000 | –
14 | CS(=O)(=O)c1c([C@@H]2C[C@H]3CC[C@@H](C2)N3C(=O)c2ccn[nH]2)nc2c(-c3ccc(-c4ccccc4F)nc3)cnn2c1N [Compound 3.135, ((1R,3s,5S)-3-(7-amino-3-(6-(2-fluorophenyl)pyridin-3-yl)-6-(methylsulfonyl)pyrazolo[1,5-a]pyrimidin-5-yl)-8-azabicyclo[3.2.1]octan-8-yl)(1H-pyrazol-5-yl)methanone] | – | – | 1 to 100 | 1 to 100 | –
15 | CC(=O)Nc1nnc(C(=O)N2[C@@H]3CC[C@H]2C[C@H](c2nc4c(-c5ccc(-c6ccccc6)nc5)cnn4c(N)c2C2CC2)C3)[nH]1 [Compound 4.28, N-(5-((1R,3s,5S)-3-(7-amino-6-cyclopropyl-3-(6-phenylpyridin-3-yl)pyrazolo[1,5-a]pyrimidin-5-yl)-8-azabicyclo[3.2.1]octane-8-carbonyl)-4H-1,2,4-triazol-3-yl)acetamide] | 100 to 1000 | 100 to 1000 | – | – | –
16 | COc1ccc(-c2ccc(-c3cnn4c(N)c(S(C)(=O)=O)c([C@@H]5C[C@H]6CC[C@@H](C5)N6C(=O)c5nnc(N)[nH]5)nc34)cn2)cc1F [Compound 3.100, ((1R,3s,5S)-3-(7-amino-3-(6-(3-fluoro-4-methoxyphenyl)pyridin-3-yl)-6-(methylsulfonyl)pyrazolo[1,5-a]pyrimidin-5-yl)-8-azabicyclo[3.2.1]octan-8-yl)(5-amino-4H-1,2,4-triazol-3-yl)methanone] | – | – | 1 to 100 | 1 to 100 | –
17 | Nc1c(C2CC2)c([C@@H]2C[C@H]3CC[C@@H](C2)N3C(=O)c2nnc[nH]2)nc2c(-c3ccc(-c4ncc[nH]4)nc3)cnn12 [Compound 6.2, ((1R,3s,5S)-3-(3-(6-(1H-imidazol-2-yl)pyridin-3-yl)-7-amino-6-cyclopropylpyrazolo [1,5-a]pyrimidin-5-yl)-8-azabicyclo[3.2.1]octan-8-yl)(4H-1,2,4-triazol-3-yl)methanone] | – | – | – | – | IC50 ([1]; PC-3, Table 6-1, PC3 cells): 1 to 100 nM; IC50 ([2]; PC-3, Table 6-1, PC3 cells): 1 to 100 nM
18 | CC(=O)c1c(N2C3CCC2CN(C(=O)CO)C3)nc2c(-c3ccc(-c4ccccc4)nc3)cnn2c1N [Compound 8.7, 1-(8-(6-acetyl-7-amino-3-(6-phenylpyridin-3-yl)pyrazolo[1,5-a]pyrimidin-5-yl)-3,8-diazabicyclo[3.2.1]octan-3-yl)-2-hydroxyethanone] | – | – | – | – | IC50 ([1]; PC-3, PC3 cells): 1000 to 10000 nM; IC50 ([2]; PC-3, PC3 cells): 100 to 1000 nM
19 | CONC(=O)N1C2CC[C@@H]1C[C@@H](c1nc3c(-c4ccc(-c5ccccc5)nc4)cnn3c(N)c1S(C)(=O)=O)C2 [Compound 3.171, (1R,3s,5S)-3-(7-amino-6-(methylsulfonyl)-3-(6-phenylpyridin-3-yl)pyrazolo[1,5-a]pyrimidin-5-yl)-N-methoxy-8-azabicyclo[3.2.1]octane-8-carboxamide] | – | – | 100 to 1000 | 100 to 1000 | –
20 | CC(=O)c1c([C@@H]2C[C@H]3CC[C@@H](C2)N3C(=O)c2n[nH]c(N(C)C)n2)nc2c(-c3ccc(-c4ccccc4)nc3)cnn2c1N [Compound 1.1.139, 1-(7-amino-5-((1R,3s,5S)-8-(5-(dimethylamino)-1H-1,2,4-triazole-3-carbonyl)-8-azabicyclo[3.2.1]octan-3-yl)-3-(6-phenylpyridin-3-yl)pyrazolo[1,5-a]pyrimidin-6-yl)ethanone] | 1000 to 10000 | 1000 to 10000 | – | – | –

From patent publication US9227971B2, “Pyrazolo[1,5-a]pyrimidine compounds as mTOR inhibitors” (Merck Sharp & Dohme Corp., priority 2010, dated 2016)
